Assays:
Type in all cases: in vivo
[1] = tested on: Echinochloa crus-galli (ECHCG); assay: Post-emergence biological efficacy, glasshouse pot test; settings: 312 h, Rate 1,000 g/ha, post-emergence spray, evaluated after 13 days (100=total damage to plant; 0=no damage to plant), read-out: Percentage damage caused to weed species, post-emergence, ECHCG
Method in brief: (§1)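 Pot-grown weeds were sprayed 8 days after sowing with test compound in acetone/water (50:50) with 0.5% Tween 20 at 1000 or 250 g/ha. Glasshouse at 24/16° C day/night, 14 h light, 65% humidity. Damage scored 0-100 (100 = total damage) after 13 days.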

Setaria faberi (SETFA) [2] = assay: as above; settings: 312 h, Rate 1,000 g/ha, post-emergence spray, evaluated after 13 days (100=total damage to plant; 0=no damage to plant), read-out: Percentage damage caused to weed species, post-emergence, SETFA
Method in brief: as §1

[3] = tested on: Alopecurus myosuroides (ALOMY); assay: as above; settings: 312 h, Rate 1,000 g/ha, post-emergence spray, evaluated after 13 days (100=total damage to plant; 0=no damage to plant), read-out: Percentage damage caused to weed species, post-emergence, ALOMY
Method in brief: as §1

Solanum nigrum (SOLNI) [4] = assay: as above; settings: 312 h, Rate 1,000 g/ha, post-emergence spray, evaluated after 13 days (100=total damage to plant; 0=no damage to plant), read-out: Percentage damage caused to weed species, post-emergence, SOLNI
Method in brief: as §1

[5] = tested on: Amaranthus retoflexus (AMARE); assay: as above; settings: Amaranthus retroflexus, 312 h; Rate 1,000 g/ha; post-emergence spray; evaluated after 13 days (100=total damage to plant; 0=no damage to plant); read-out: Percentage damage caused to weed species, post-emergence, AMARE
Method in brief: as §1

[6] = tested on: Ipomea hederaceae (IPOHE); assay: as above; settings: Ipomoea hederacea, 312 h; Rate 1,000 g/ha; post-emergence spray; evaluated after 13 days (100=total damage to plant; 0=no damage to plant); read-out: Percentage damage caused to weed species, post-emergence, IPOHE
Method in brief: as §1

[7] = tested on: Echinochloa crus-galli (ECHCG); assay: Pre-emergence biological efficacy, glasshouse pot test; settings: 312 h, pre-emergence, rate 1,000 g/ha, evaluated after 13 days (100=total damage to plant; 0=no damage), read-out: Percentage damage caused to weed species, ECHCG
Method in brief: (§2)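 Glasshouse pot test: spray on soil one day after sowing, 1000 or 250 g/ha. Conditions 24/16 °C day/night, 14 h light, 65% humidity. Plant damage scored 0–100 at 13 days.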

Setaria faberi (SETFA) [8] = assay: as above; settings: 312 h, pre-emergence, rate 1,000 g/ha, evaluated after 13 days (100=total damage to plant; 0=no damage), read-out: Percentage damage caused to weed species, SETFA
Method in brief: as §2

[9] = tested on: Alopecurus myosuroides (ALOMY); assay: as above; settings: 312 h, pre-emergence, rate 1,000 g/ha, evaluated after 13 days (100=total damage to plant; 0=no damage), read-out: Percentage damage caused to weed species, ALOMY
Method in brief: as §2

Solanum nigrum (SOLNI) [10] = assay: as above; settings: 312 h, pre-emergence, rate 1,000 g/ha, evaluated after 13 days (100=total damage to plant; 0=no damage), read-out: Percentage damage caused to weed species, SOLNI
Method in brief: as §2

[11] = tested on: Amaranthus retoflexus (AMARE); assay: as above; settings: Amaranthus retroflexus, 312 h; pre-emergence, rate 1,000 g/ha, evaluated after 13 days (100=total damage to plant; 0=no damage); read-out: Percentage damage caused to weed species, AMARE
Method in brief: as §2

[12] = tested on: Ipomea hederaceae (IPOHE); assay: as above; settings: Ipomoea hederacea, 312 h; pre-emergence, rate 1,000 g/ha, evaluated after 13 days (100=total damage to plant; 0=no damage); read-out: Percentage damage caused to weed species, IPOHE
Method in brief: as §2

| Compound | pest or weed control at 1000 g/ha [1] | pest or weed control at 1000 g/ha (Setaria faberi (SETFA) [2]) | pest or weed control at 1000 g/ha [3] | pest or weed control at 1000 g/ha (Solanum nigrum (SOLNI) [4]) | pest or weed control at 1000 g/ha [5] | pest or weed control at 1000 g/ha [6] | pest or weed control at 1000 g/ha [7] | pest or weed control at 1000 g/ha (Setaria faberi (SETFA) [8]) | pest or weed control at 1000 g/ha [9] | pest or weed control at 1000 g/ha (Solanum nigrum (SOLNI) [10]) | pest or weed control at 1000 g/ha [11] | pest or weed control at 1000 g/ha [12] |
| --- | --- | --- | --- | --- | --- | --- | --- | --- | --- | --- | --- | --- |
| COc1c(Cl)ccc(-c2nc(NCC3CC3)c(Cl)c(C(=O)O)n2)c1F [Compound 109-43, 5-Chloro-2-(4-chloro-2-fluoro-3-methoxyphenyl)-4-cyclopropylmethyl-aminopyrimidine-6-carboxylic acid] | 100% | 90% | 90% | 100% | 100% | 80% | 30% | 60% | 10% | 90% | 100% | 70% |
| COc1c(Cl)ccc(-c2nc(NCc3ccco3)c(Cl)c(C(=O)O)n2)c1F [Compound 109-125, 5-Chloro-2-(4-chloro-2-fluoro-3-methoxyphenyl)-4-(furan-2-yl-methyl-amino)pyrimidine-6-carboxylic acid] | 80% | 90% | 70% | 90% | 100% | 100% | 90% | 90% | 70% | 100% | 100% | 100% |
| COC(=O)c1nc(-c2ccc(Cl)c(OC)c2F)nc(NCC2CC2)c1Cl [Compound 112-43, 5-Chloro-2-(4-chloro-2-fluoro-3-methoxy-phenyl)-4-cyclo-propylmethylamino-6-methoxycarbonyl-pyrimidine] | 80% | 80% | 40% | 90% | 100% | 70% | 60% | 30% | 40% | 70% | 60% | 80% |
| COC(=O)c1nc(-c2ccc(Cl)c(OC)c2F)nc(NCc2ccco2)c1Cl [Compound 112-125, 5-Chloro-2-(4-chloro-2-fluoro-3-methoxyphenyl)-4-(furan-2-yl-methyl-amino)-6-methoxy-carbonylpyrimidine] | 90% | 100% | 80% | 100% | 100% | 90% | 100% | 90% | 70% | 90% | 100% | 100% |
| COC(=O)c1nc(-c2ccc(Cl)c(OC)c2F)nc(NCc2ccc(C)o2)c1Cl [Compound 112-135, 5-Chloro-2-(4-chloro-2-fluoro-3-methoxyphenyl)-6-methoxycarbonyl-4-[(5-methylfuran-2-yl)methylamino)-pyrimidine] | 90% | 90% | 70% | 90% | 100% | 80% | 90% | 90% | 70% | 100% | 100% | 100% |
| C=Cc1c(NCc2ccco2)nc(-c2ccc(Cl)c(OC)c2F)nc1C(=O)OC [Compound 139-125, 2-(4-Chloro-2-fluoro-3-methoxyphenyl)-5-ethenyl-4-(furan-2-ylmethylamino)-6-methoxycarbonyl-pyrimidine] | 80% | 90% | 80% | 90% | 100% | 80% | 80% | 80% | 70% | 100% | 100% | 90% |
| CCCN(Cc1ccccc1)c1nc(C2CC2)nc(C(=O)OC)c1Cl [Compound 145-60] | 40% | 70% | 20% | 80% | 90% | 80% | 0% | 10% | 0% | 70% | 100% | 40% |
| CCCN(Cc1ccccc1F)c1nc(C2CC2)nc(C(=O)OC)c1Cl [Compound 145-64, 5-Chloro-2-cyclopropyl-4-[N-(2-fluorophenylmethyl)-N-prop-1-yl-amino]-6-methoxy-carbonylpyrimidine] | 30% | 40% | 0% | 80% | 90% | 70% | 0% | 0% | 0% | 70% | 70% | 70% |
| CCCN(Cc1ccc(C)cc1)c1nc(C2CC2)nc(C(=O)OC)c1Cl [Compound 145-73, 5-Chloro-2-cyclopropyl-6-methoxycarbonyl-4-[N-(4-methyl-phenylmethyl)-N-prop-1-yl-amino]-pyrimidine] | 20% | 40% | 10% | 50% | 80% | 70% | 30% | 20% | 30% | 70% | 100% | 20% |
| COC(=O)c1nc(C2CC2)nc(N(Cc2ccc(C)o2)C(C)C)c1Cl [Compound 146-135, 5-Chloro-2-cyclopropyl-6-methoxycarbonyl-4-[N-(5-methylfuran-2-ylmethyl)-N-prop-2-yl-amino]-pyrimidine] | 80% | 90% | 40% | 90% | 100% | 100% | 10% | 40% | 40% | 100% | 100% | 100% |

Reference: patent publication US20110086759A1, “CHEMICAL COMPOUNDS” (SYNGENTA CROP PROTECTION, INC., priority 2007, published 2011)
